Key:
Format in all cases: in vivo
[1] = tested on: pigweed, palmer (palmer amaranth, Amaranthus palmeri); experiment: Test C preemergence, palmer amaranth; conditions: 0 is no effect, 100 is complete control
In short: (§1)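 Greenhouse pot test. Compounds in a non-phytotoxic solvent with surfactant were applied to a loam–sand soil mix either preemergence as a directed spray or postemergence to plants at the one- to two-leaf stage; 0–100 visual ratings followed after 10 or 12 days.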

corn (Zea mays) = experiment: Test C postemergence, corn; conditions: for Corn plant response rating: visual injury, 0 to 100 scale (0 no effect, 100 complete control); for Plant response rating (0 to 100 scale), Corn: 0 is no effect, 100 is complete control
[2] = tested on: ryegrass, Italian (Italian ryegrass, Lolium multiflorum); experiment: Test C preemergence, Italian ryegrass; conditions: 0 is no effect, 100 is complete control
In short: as §1

soybean (Glycine max) = experiment: Test C preemergence, soybean; conditions: 0 is no effect, 100 is complete control
In short: as §1

rice (Oryza sativa) = experiment: Test D flooded paddy test, rice; design: key: 0 = no effect, 100 = complete control; conditions: 250 g ai/ha, Flood; applied to paddy water at 2-leaf stage; visual rating after 13 days; scale 0 (no effect) to 100 (complete control)
In short: (§2)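 Visual response scores run 0 (no effect) to 100 (complete control), judged against controls 13 days after treatment. Compounds were added to paddy water 3 cm deep over soil, around plants at the 2-leaf stage kept in a greenhouse.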

[3] = tested on: wheat (Triticum aestivum); experiment: Test C postemergence, wheat; conditions: for Wheat plant response rating: visual injury, 0 to 100 scale (0 no effect, 100 complete control); for Plant response rating (0 to 100 scale), Wheat: 0 is no effect, 100 is complete control
In short: as §1

[4] = tested on: sedge, umbrella (small-flower umbrella sedge, Cyperus difformis); experiment: Test D flooded paddy test, umbrella sedge; design: key: 0 = no effect, 100 = complete control; conditions: 250 g ai/ha, Flood; applied to paddy water at 2-leaf stage; visual rating after 13 days; scale 0 (no effect) to 100 (complete control)
In short: as §2

[5] = tested on: ragweed (common ragweed, Ambrosia artemisiifolia); experiment: Test C postemergence, ragweed; conditions: for Ragweed plant response rating: visual injury, 0 to 100 scale (0 no effect, 100 complete control); for Plant response rating (0 to 100 scale), Ragweed: 0 is no effect, 100 is complete control
In short: as §1

[6] = tested on: horseweed (Erigeron canadensis); experiment: Test C postemergence, horseweed; conditions: for Horseweed plant response rating: visual injury, 0 to 100 scale (0 no effect, 100 complete control); for Plant response rating (0 to 100 scale), Horseweed: 0 is no effect, 100 is complete control
In short: as §1

Row | SMILES | Plant response rating (0 to 100 scale), Pigweed, Palmer ([1]; 31 g ai/ha Preemergence) | Plant response rating (0 to 100 scale), Pigweed, Palmer ([1]; 125 g ai/ha Preemergence) | Corn plant response rating (corn (Zea mays); 31 g ai/ha Postemergence) | Plant response rating (0 to 100 scale), Corn (corn (Zea mays); 125 g ai/ha Postemergence) | Plant response rating (0 to 100 scale), Ryegrass, Italian ([2]; 31 g ai/ha Preemergence) | Plant response rating (0 to 100 scale), Ryegrass, Italian ([2]; 125 g ai/ha Preemergence) | Plant response rating (0 to 100 scale), Soybean (soybean (Glycine max); 31 g ai/ha Preemergence) | Plant response rating (0 to 100 scale), Soybean (soybean (Glycine max); 125 g ai/ha Preemergence) | Plant response rating, Rice (rice (Oryza sativa)) | Wheat plant response rating ([3]; 31 g ai/ha Postemergence) | Wheat plant response rating ([3]; 125 g ai/ha Postemergence) | Plant response rating, Sedge, Umbrella [4] | Ragweed plant response rating ([5]; 31 g ai/ha Postemergence) | Ragweed plant response rating ([5]; 125 g ai/ha Postemergence) | Corn plant response rating (corn (Zea mays); 125 g ai/ha Postemergence) | Horseweed plant response rating ([6]; 31 g ai/ha Postemergence) | Horseweed plant response rating ([6]; 125 g ai/ha Postemergence) | Plant response rating (0 to 100 scale), Wheat ([3]; 125 g ai/ha Postemergence) | Plant response rating (0 to 100 scale), Horseweed ([6]; 125 g ai/ha Postemergence) | Plant response rating (0 to 100 scale), Ragweed ([5]; 125 g ai/ha Postemergence)
1 | Cc1c(NS(=O)(=O)C(F)(F)F)cc(N2CCC(OC3CC3)C2=O)c(C)c1F (centres unmarked) [Compound 26] | 100 | 100 | 50 | 90 | 90 | 100 | 70 | 90 | 65 | 60 | 70 | 95 | 60 | 80 |  |  |  |  |  | 
2 | Cc1cc(C)c(N(COC(=O)C(C)(C)C)S(=O)(=O)C(F)(F)F)cc1N1CCC(OCC2CC(F)(F)C2)C1=O (centres unmarked) [Compound 55] | 0 | 30 | 0 |  | 20 | 60 | 0 | 0 | 15 | 20 | 70 | 95 | 50 | 80 | 70 | 80 | 80 |  |  | 
3 | CCO/N=C1\CCN(c2cc(NS(=O)(=O)C(F)(F)F)c(C)cc2C)C1=O [Compound 12, N-[5-[3-(ethoxyimino)-2-oxo-1-pyrrolidinyl]-2,4-dimethylphenyl]-1,1,1-trifluoromethanesulfonamide] | 100 | 100 | 100 | 100 | 90 | 100 | 90 | 100 | 40 | 80 |  | 100 | 90 |  |  | 90 |  | 90 | 100 | 90
4 | Cc1c(N2CCC(OC3CC3)C2=O)cc(N(COC(=O)C(C)(C)C)S(=O)(=O)C(F)(F)F)c(C)c1C (centres unmarked) [Compound 49] | 30 | 100 | 50 |  | 40 | 100 | 0 | 40 | 40 | 70 | 70 | 90 | 70 | 90 | 100 |  | 100 |  |  | 
5 | Cc1cc(C)c(N2CCC(OCC3CC3(F)F)C2=O)cc1NS(=O)(=O)C(F)(F)F (centres unmarked) [Compound 41] | 100 | 100 | 40 |  | 100 | 100 | 60 | 100 | 10 | 60 | 60 | 70 | 50 | 70 | 90 | 70 | 100 |  |  | 
6 | Cc1cc(C)c(N2CCC(OCC3CCC3(F)F)C2=O)cc1NS(=O)(=O)C(F)(F)F (centres unmarked) [Compound 52] | 70 | 100 | 0 |  | 0 | 80 | 30 | 50 | 0 | 20 | 70 | 80 | 40 | 70 | 60 | 80 | 90 |  |  | 
7 | Cc1c(N2CCCC(OC3CC3)C2=O)cc(N(COC(=O)C(C)(C)C)S(=O)(=O)C(F)(F)F)c(C)c1F (centres unmarked) [Compound 37] | 50 | 90 | 10 | 90 | 30 | 70 | 0 | 30 | 0 | 10 | 60 | 95 | 60 | 90 |  | 80 |  |  | 80 | 
8 | Cc1c(NS(=O)(=O)C(F)(F)F)cc(N2CCC(OC3CCC3)C2=O)c(C)c1F (centres unmarked) [Compound 25] | 100 | 100 | 30 | 60 | 90 | 100 | 80 | 90 | 15 | 50 | 60 | 90 | 60 | 80 |  |  |  |  |  | 
9 | CC#CCOC1CCN(c2cc(NS(=O)(=O)C(F)(F)F)c(C)cc2C)C1=O (centres unmarked) [Compound 60] | 100 | 100 | 90 |  | 70 | 100 | 50 | 90 | 35 | 80 | 90 | 95 | 80 | 90 | 100 | 80 | 100 |  |  | 
10 | Cc1cc(Cl)c(N(COC(=O)C(C)(C)C)S(=O)(=O)C(F)(F)F)cc1N1CCC(OC2CC2)C1=O (centres unmarked) [Compound 33] | 70 | 80 | 80 | 90 | 20 | 100 | 0 | 60 | 45 | 50 | 70 | 90 | 90 | 90 |  | 70 |  |  | 100 | 
11 | Cc1cc(C)c(N2CCC(OC3COC3)C2=O)cc1NS(=O)(=O)C(F)(F)F (centres unmarked) [Compound 34] | 100 | 100 | 60 | 90 | 40 | 80 | 40 | 90 | 25 | 70 | 80 | 80 | 90 | 90 |  | 90 |  |  | 100 | 
12 | Cc1cc(C)c(N(C(=O)OC(C)C)S(=O)(=O)C(F)(F)F)cc1N1CCC(OC2CC2)C1=O (centres unmarked) [Compound 18] | 0 | 20 | 0 | 0 | 0 | 0 | 0 | 30 | 0 | 0 |  | 0 | 0 |  |  | 0 |  | 0 | 0 | 50
13 | Cc1cc(C)c(N2CCC(OC3CC3)C2=O)cc1NS(=O)(=O)C(F)(F)F (single isomer, unassigned) [Compound 30] | 100 | 100 | 90 | 90 | 100 | 100 | 80 | 90 | 75 | 70 | 70 | 98 | 90 | 90 |  |  |  |  |  | 
14 | Cc1c(N2CCC(OC3CC3)C2=O)cc(N(C(=O)OCC(C)C)S(=O)(=O)C(F)(F)F)c(C)c1C (centres unmarked) [Compound 50] | 90 | 100 | 30 |  | 50 | 100 | 30 | 60 | 20 | 60 | 80 | 95 | 70 | 80 | 90 |  |  |  |  | 
